From patent US10392383B2, “3-(1H-benzo[d]imidazol-2-yl)-1H-pyrazolo[4,3-b]pyridines and therapeutic uses thereof” (Samumed, LLC, priority 2015, dated 2019)
pEC50: −log10 of the molar value.

Experiments:
Format in all cases: cell-based
[1] = system: IL-6 (THP-1 cells); test: IL-6 inhibition in LPS-stimulated THP-1 monocytes (HTRF); details: Homo sapiens, IL-6 HTRF; for pEC50: 500 ng/mL LPS, Table 6; for inhibition at 10 µM: LPS, Table 6, read-out: percent inhibition at 10 μM (given in parentheses for EC50 >10 μM)
In short: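 THP-1 cells in 1% FBS pre-incubated 2 h with compound (10-point 1:3 series from 10 μM, 0.1% DMSO), then stimulated with 500 ng/mL LPS for 22 h at 37 °C. IL-6 measured by HTRF 665/620 ratio, normalized to DMSO; EC50 by four-parameter fit, or % inhibition at 10 μM when EC50 >10 μM.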

[2] = system: primary human fibroblasts derived from IPF patients (LL29 cells) treated with TGF-β1; test: Inhibition of the fibrotic process: αSMA staining in TGF-β1-treated LL29 fibroblasts; details: Fibroblast; for pEC50: 96 h, LL29 fibroblasts treated with TGF-β1 (20 ng/mL), 4 days, Table 4; for inhibition at 10 µM: LL29 fibroblasts treated with TGF-β1, Table 4, read-out: percent inhibition at 10 μM (given in parentheses for EC50 >10 μM)
In short: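 IPF-derived LL29 fibroblasts in F12 with 1% FBS dosed with compound (11-point, 10 μM to 1.87 nM, 0.1% DMSO), then 20 ng/mL TGF-β1 after 1 h, and cultured 4 days at 37 °C. αSMA-positive cell fraction imaged after excluding SYTOX-positive cells, normalized to TGF-β1/DMSO wells; EC50 by non-linear regression, % inhibition at 10 μM if EC50 >10 μM.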

[3] = system: SW480 colon cancer cells; test: Cell viability assay (CellTiter-Blue) in SW480 cells; details: Homo sapiens, 96 h, four days; for pEC50: CellTiter-Blue, 10 μM to 0.0045 μM; for inhibition at 10 µM: read-out: percent inhibition at 10 μM (given for EC50 of >10 μM)
In short: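 SW480 cells (~2×10^3 per well) were exposed to compound for four days at 37 °C/5% CO2, using 8-point 1:3 dilutions from 10 μM to 0.0045 μM in duplicate. Viability was read by resazurin reduction (CellTiter-Blue, ~3 h, Ex 560/Em 590 nm). EC50 came from non-linear regression; above 10 μM, percent inhibition at 10 μM is given.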

Row | Structure (SMILES) | pEC50 [1] | pEC50 [3] | pEC50 [2] | inhibition at 10 µM [1] [%] | inhibition at 10 µM [2] [%] | inhibition at 10 µM [3] [%]
1 | CS(=O)(=O)NCc1cc(F)cc(-c2cccc3[nH]c(-c4n[nH]c5ccc(-c6cncnc6)nc45)nc23)c1 [Compound 503, N-(3-Fluoro-5-(2-(5-(pyrimidin-5-yl)-1H-pyrazolo[4,3-b]pyridin-3-yl)-1H-benzo[d]imidazol-4-yl)benzyl)methanesulfonamide] | 5.43 | 5.09 | 5.30 |  |  | 
2 | COc1cncc(-c2ccc3[nH]nc(-c4nc5c(-c6cccc(F)c6)cccc5[nH]4)c3n2)c1 [Compound 516, 3-(4-(3-Fluorophenyl)-1H-benzo[d]imidazol-2-yl)-5-(5-methoxypyridin-3-yl)-1H-pyrazolo[4,3-b]pyridine] | < 5.00 | 5.94 | < 5.00 | 49.5 | 0 | 
3 | c1csc(-c2cccc3[nH]c(-c4n[nH]c5ccc(-c6ccncc6)nc45)nc23)c1 [Compound 354, 5-(Pyridin-4-yl)-3-(4-(thiophen-2-yl)-1H-benzo[d]imidazol-2-yl)-1H-pyrazolo[4,3-b]pyridine] | < 5.00 | 5.55 | < 5.00 | 20.4 | 31.2 | 
4 | Cc1cn(-c2cccc3[nH]c(-c4n[nH]c5ccc(-c6cncc(NC(=O)C(C)(C)C)c6)nc45)nc23)cn1 [Compound 204, N-(5-(3-(4-(4-Methyl-1H-imidazol-1-yl)-1H-benzo[d]imidazol-2-yl)-1H-pyrazolo[4,3-b]pyridin-5-yl)pyridin-3-yl)pivalamide] | 5.20 | 5.82 | 6.00 |  |  | 
5 | CN(C)c1cncc(-c2ccc3[nH]nc(-c4nc5c(-c6cccc(F)c6)cccc5[nH]4)c3n2)c1 [Compound 7, 5-(3-(4-(3-fluorophenyl)-1H-benzo[d]imidazol-2-yl)-1H-pyrazolo[4,3-b]pyridin-5-yl)-N,N-dimethylpyridin-3-amine] | 5.02 | 5.56 | 5.84 |  |  | 
6 | O=C(Nc1cncc(-c2ccc3[nH]nc(-c4nc5c(-c6cccc(F)c6)cccc5[nH]4)c3n2)c1)C1CC1 [Compound 20, N-(5-(3-(4-(3-Fluorophenyl)-1H-benzo[d]imidazol-2-yl)-1H-pyrazolo[4,3-b]pyridin-5-yl)pyridin-3-yl)cyclopropanecarboxamide] | < 5.00 | 5.37 | 5.92 | 0 |  | 
7 | CCC(=O)Nc1cncc(-c2ccc3[nH]nc(-c4nc5c(-c6cccs6)cccc5[nH]4)c3n2)c1 [Compound 337, N-(5-(3-(4-(Thiophen-2-yl)-1H-benzo[d]imidazol-2-yl)-1H-pyrazolo[4,3-b]pyridin-5-yl)pyridin-3-yl)propionamide] | 5.68 | 5.49 | 6.17 |  |  | 
8 | COc1cncc(-c2ccc3[nH]nc(-c4nc5c(N6CCCCC6)cccc5[nH]4)c3n2)c1 [Compound 612, 5-(5-Methoxypyridin-3-yl)-3-(4-(piperidin-1-yl)-1H-benzo[d]imidazol-2-yl)-1H-pyrazolo[4,3-b]pyridine] | < 5.00 | 5.39 | < 5.00 | 34.2 | 26.9 | 
9 | FC1(F)CCN(Cc2cncc(-c3ccc4[nH]nc(-c5nc6c(N7CCCCC7)cccc6[nH]5)c4n3)c2)C1 [Compound 194, 5-(5-((3,3-Difluoropyrrolidin-1-yl)methyl)pyridin-3-yl)-3-(4-(piperidin-1-yl)-1H-benzo[d]imidazol-2-yl)-1H-pyrazolo[4,3-b]pyridine] | < 5.00 | < 5.00 | 5.18 | 46.9 |  | 25.4
10 | CC(C)CC(=O)Nc1cncc(-c2ccc3[nH]nc(-c4nc5c(-c6cccc(F)c6)cccc5[nH]4)c3n2)c1 [Compound 2, N-(5-(3-(4-(3-Fluorophenyl)-1H-benzo[d]imidazol-2-yl)-1H-pyrazolo[4,3-b]pyridin-5-yl)pyridin-3-yl)-3-methylbutanamide] | 5.17 | < 5.00 | 5.01 |  |  | 14.2
11 | CN(C)c1cncc(-c2ccc3[nH]nc(-c4nc5c(-c6cccs6)cccc5[nH]4)c3n2)c1 [Compound 343, N,N-Dimethyl-5-(3-(4-(thiophen-2-yl)-1H-benzo[d]imidazol-2-yl)-1H-pyrazolo[4,3-b]pyridin-5-yl)pyridin-3-amine] | 5.43 | 5.63 | 5.93 |  |  | 
12 | CN(C)Cc1cncc(-c2ccc3[nH]nc(-c4nc5c(-c6cccs6)cccc5[nH]4)c3n2)c1 [Compound 349, N,N-dimethyl-1-(5-(3-(4-(thiophen-2-yl)-1H-benzo[d]imidazol-2-yl)-1H-pyrazolo[4,3-b]pyridin-5-yl)pyridin-3-yl)methanamine] | < 5.00 | 5.54 | 5.60 | 14.5 |  | 

The next molecules have a higher pEC50 [1] than those just listed; values first:

Row | pEC50 [1] | pEC50 [3] | Structure (SMILES) | pEC50 [2] | inhibition at 10 µM [1] [%] | inhibition at 10 µM [2] [%] | inhibition at 10 µM [3] [%]
13 | 5.86 | 6.33 | CN(C)Cc1cncc(-c2ccc3[nH]nc(-c4nc5c(-c6cccc(F)c6)cccc5[nH]4)c3n2)c1 [Compound 13, 1-(5-(3-(4-(3-Fluorophenyl)-1H-benzo[d]imidazol-2-yl)-1H-pyrazolo[4,3-b]pyridin-5-yl)pyridin-3-yl)-N,N-dimethylmethanamine] | 6.21 |  |  | 
14 | 5.88 | 5.96 | CCCCC(=O)Nc1cncc(-c2ccc3[nH]nc(-c4nc5c(-c6cc(F)cc(NCCN(C)C)c6)cccc5[nH]4)c3n2)c1 [Compound 467, N-(5-(3-(4-(3-((2-(Dimethylamino)ethyl)amino)-5-fluorophenyl)-1H-benzo [d]imidazol-2-yl)-1H-pyrazolo[4,3-b]pyridin-5-yl)pyridin-3-yl)pentanamide] | 5.93 |  |  | 
15 | 6.01 | 6.29 | CC(C)Nc1cncc(-c2ccc3[nH]nc(-c4nc5c(-c6cc(F)cc(NCCN(C)C)c6)cccc5[nH]4)c3n2)c1 [Compound 460, N^1-(3-Fluoro-5-(2-(5-(5-(isopropylamino)pyridin-3-yl)-1H-pyrazolo[4,3-b]pyridin-3-yl)-1H-benzo[d]imidazol-4-yl)phenyl)-N^2,N^2-dimethylethane-1,2-diamine] | 5.84 |  |  | 
16 | 6.10 | 6.38 | Cc1ncc(-c2ccc3[nH]nc(-c4nc5c(-c6cccc(F)c6)cccc5[nH]4)c3n2)n1C [Compound 509, 5-(1,2-Dimethyl-1H-imidazol-5-yl)-3-(4-(3-fluorophenyl)-1H-benzo[d]imidazol-2-yl)-1H-pyrazolo[4,3-b]pyridine] | 6.76 |  |  | 
17 | 6.16 | 5.57 | c1cc(N2CCCCC2)c2nc(-c3n[nH]c4ccc(-c5cncc(OCCN6CCCC6)c5)nc34)[nH]c2c1 [Compound 610, 3-(4-(Piperidin-1-yl)-1H-benzo[d]imidazol-2-yl)-5-(5-(2-(pyrrolidin-1-yl)ethoxy)pyridin-3-yl)-1H-pyrazolo[4,3-b]pyridine] | 5.70 |  |  | 
18 | 7.14 | 5.72 | c1ccc(-c2ccc3[nH]nc(-c4nc5ccccc5[nH]4)c3n2)nc1 [Compound 280, 3-(1H-Benzo[d]imidazol-2-yl)-5-(pyridin-2-yl)-1H-pyrazolo[4,3-b]pyridine] | 5.32 |  |  | 
19 | 8.55 | 5.48 | c1cncc(-c2cccc3[nH]c(-c4n[nH]c5ccc(-c6cncc(OC7CCCCC7)c6)nc45)nc23)c1 [Compound 559, 5-(5-(Cyclohexyloxy)pyridin-3-yl)-3-(4-(pyridin-3-yl)-1H-benzo[d]imidazol-2-yl)-1H-pyrazolo[4,3-b]pyridine] | 5.58 |  |  | 
